Read-outs that look alike come from different tables or passages of the source.
How the values were obtained:
[1] = system: 60 human tumor cell lines panel; assay: NCI-60 anticancer screen, whole panel (means and ranges over the cell lines); type: cell-based; settings: Homo sapiens, 48 h
OVCAR-3 = assay: cells; settings: Homo sapiens, OVCAR-3, 48 h, read-out: Growth Percentage
K-562 = assay: NCI-60 anticancer screen (SRB; single dose and five doses); settings: Homo sapiens, K562, 48 h, read-out: Growth Percentage
SR = assay: as above; settings: Homo sapiens, 48 h, read-out: Growth Percentage
A549/ATCC = assay: as above; settings: Homo sapiens, A549, 48 h, read-out: Growth Percentage
EKVX = assay: as above; settings: Homo sapiens, 48 h, read-out: Growth Percentage
HOP-92 = assay: as above; settings: Homo sapiens, HOP-92, 48 h, read-out: Growth Percentage
NCI-H522 = assay: as above; settings: Homo sapiens, NCI-H522, 48 h, read-out: Growth Percentage
HT29 = assay: as above; settings: Homo sapiens, HT-29, 48 h, read-out: Growth Percentage
KM12 = assay: as above; settings: Homo sapiens, KM12, 48 h, read-out: Growth Percentage
SW-620 = assay: as above; settings: Homo sapiens, SW-620, 48 h, read-out: Growth Percentage
SF-539 = assay: as above; settings: Homo sapiens, SF-539, 48 h, read-out: Growth Percentage
SNB-75 = assay: as above; settings: Homo sapiens, SNB-75, 48 h, read-out: Growth Percentage
MDA-MB-435 = assay: as above; settings: Homo sapiens, MDA-MB-435, 48 h, read-out: Growth Percentage
SK-MEL-28 = assay: as above; settings: Homo sapiens, SK-MEL-28, 48 h, read-out: Growth Percentage
IGROV1 = assay: as above; settings: Homo sapiens, IGROV-1, 48 h, read-out: Growth Percentage
OVCAR-5 = assay: as above; settings: Homo sapiens, OVCAR-5, 48 h, read-out: Growth Percentage
NCI/ADR-RES = assay: as above; settings: Homo sapiens, 48 h, read-out: Growth Percentage
SK-OV-3 = assay: as above; settings: Homo sapiens, SK-OV-3, 48 h, read-out: Growth Percentage
A498 = assay: as above; settings: Homo sapiens, A498, 48 h, read-out: Growth Percentage, A498; dose of 10 μM
ACHN = assay: as above; settings: Homo sapiens, 48 h, read-out: Growth Percentage
CAKI-1 = assay: as above; settings: Homo sapiens, CAKI-1, 48 h, read-out: Growth Percentage
RXF 393 = assay: as above; settings: Homo sapiens, RXF 393, 48 h, read-out: Growth Percentage
SN12C = assay: as above; settings: Homo sapiens, 48 h, read-out: Growth Percentage
PC-3 = assay: as above; settings: Homo sapiens, PC-3, 48 h, read-out: Growth Percentage
DU-145 = assay: as above; settings: Homo sapiens, DU-145, 48 h, read-out: Growth Percentage
MDA-MB-231/ATCC = assay: as above; settings: Homo sapiens, MDA-MB-231, 48 h, read-out: Growth Percentage
HS 578T = assay: as above; settings: Homo sapiens, 48 h, read-out: Growth Percentage
CCRF-CEM = assay: NCI-60 anticancer screen (SRB; single dose 10 μM and five doses); settings: Homo sapiens, 48 h, read-out: Growth Percentage

Cc1[nH]c(=S)sc1C(=O)/C=C/c1ccc(N(C)C)cc1 [2k, (E)-3-(4-(Dimethylamino)Phenyl)-1-(4-Methyl-2-Thioxo-2,3-Dihydrothiazol-5-yl)Prop-2-En-1-One]
activity at 10 µM ([1]; read-out: growth percentages against most of the tested cells (lowest to highest)): 35.4 to 130%
activity at 10 µM ([1]; mean over the tested cell lines, dose of 10 μM, read-out: Mean growth percentage): 77.7%
activity at 10 µM (OVCAR-3): 82.2%
activity at 10 µM (K-562): 47%
activity at 10 µM (SR): 57.4%
activity at 10 µM (A549/ATCC): 68.1%
activity at 10 µM (EKVX): 67%
activity at 10 µM (HOP-92): 119%
activity at 10 µM (NCI-H522): 58.9%
activity at 10 µM (HT29): 94%
activity at 10 µM (KM12): 62.6%
activity at 10 µM (SW-620): 89.9%
activity at 10 µM (SF-539): 88.7%
activity at 10 µM (SNB-75): 96%
activity at 10 µM (MDA-MB-435): 58.4%
activity at 10 µM (SK-MEL-28): 92.7%
activity at 10 µM (IGROV1): 82.3%
activity at 10 µM (OVCAR-5): 142%
activity at 10 µM (NCI/ADR-RES): 56.9%
activity at 10 µM (SK-OV-3): 92.6%
activity at 10 µM (A498): 130%
activity at 10 µM (ACHN): 75.7%
activity at 10 µM (CAKI-1): 68.6%
activity at 10 µM (RXF 393): 90.8%
activity at 10 µM (SN12C): 75.7%
activity at 10 µM (PC-3): 71.7%
activity at 10 µM (DU-145): 92.8%
activity at 10 µM (MDA-MB-231/ATCC): 90.3%
activity at 10 µM (HS 578T): 118%
activity at 10 µM (CCRF-CEM): 68.5%
